# Data as given in US7176276B2, “Antimicrobial peptide and use thereof” (Toagosei Co., Ltd., priority 2003, dated 2007).
# Ends that are not written are not given here.
# Legend:
# Assay type in all cases: cell-based
# [1] = test system: Salmonella enteritidis IFO 3313; conditions: IFO 3313, 24 h
# Method: (§1) That is, each sample was diluted with a liquid bouillon medium (mfd. by DIFCO, product name “NUTRIENT BROTH Dehydrated”) to a peptide concentration of 500, 250, 125, 62.5, 31.3, 15.6, 7.8, 3.9, 1.9, 1.0 or 0.5 […] and dispensed in 150 μl portions into a 96 well microplate. On the other hand, a cell suspension (about 2×10^6 cells/ml) prepared by statically culturing each strain at 37° C. for 18 hours in LB Broth, Lennox (mfd. by DIFCO) was inoculated into each well of the 96 well microplate in an amount equivalent to that of the drug solution (the aforementioned peptide-containing bouillon medium). After the inoculation, the culturing was started in an incubator of 37° C., and the presence of bacterial growth was examined based on the turbidity after 24 hours. The minimum peptide concentration by which increase in the turbidity due to bacterial growth was not observed at the time of the measurement was defined as the MIC in this Example.
# [2] = test system: Bacillus subtilis ATCC 6633; conditions: ATCC 6633, 24 h
# Method: (§2) Gram-Positive Bacteria: • Staphylococcus aureus IFO 12732 • Staphylococcus aureus COL1 (MRSA) • Bacillus cereus IFO 3001 • Bacillus subtilis ATCC 6633 • Micrococcus luteus IFO 12708
# as §1
# [3] = test system: Staphylococcus aureus IFO 12732; conditions: IFO 12732, 24 h
# Method: as §2, §1
# [4] = test system: Micrococcus luteus IFO 12708; conditions: IFO 12708, 24 h
# Method: as §2, §1
# [5] = test system: Bacillus cereus IFO 3001; conditions: IFO 3001, 24 h
# Method: as §2, §1
# [6] = test system: Pseudomonas aeruginosa ATCC 10145; conditions: ATCC 10145, 24 h
# Method: (§3) Escherichia coli IFO 12713 • Escherichia coli 0157:H7 sakai • Klebsiella pneumoniae ATCC 4352 • Pseudomonas aeruginosa ATCC 10145
# as §1
# [7] = test system: Escherichia coli IFO 12713; conditions: IFO 12713, 24 h
# Method: as §3, §1
# [8] = test system: Klebsiella pneumoniae ATCC 4352; conditions: ATCC 4352, 24 h
# Method: as §3, §1
# [9] = test system: Staphylococcus aureus COL1 (MRSA); conditions: COL1, 24 h
# Method: as §2, §1
Substance,MIC [1] [µg/mL],MIC [2] [µg/mL],MIC [3] [µg/mL],MIC [4] [µg/mL],MIC [5] [µg/mL],MIC [6] [µg/mL],MIC [7] [µg/mL],MIC [8] [µg/mL],MIC [9] [µg/mL]
"RRRLLRKWWWKRLL-NH2 (C-terminus assumed) [Sample 3, RRRLLRKWWWKRLL]",3.9,1.95,1.95,7.8,62.5,15.6,15.6,3.9,–
"LLRKWWWKRLL-NH2 (C-terminus assumed) [compound 1, LLRKWWWKRLL, reference compound]",15.6,0.98,1.95,7.8,62.5,–,–,–,–
"RLLRKWWWKRLL-NH2 (C-terminus assumed) [Sample 1, RLLRKWWWKRLL]",3.9,1.95,1.95,3.9,62.5,15.6,15.6,7.8,–
"RRLLRKWWWKRLL-NH2 (C-terminus assumed) [Sample 2, RRLLRKWWWKRLL]",3.9,1.95,1.95,3.9,62.5,–,7.8,3.9,15.6
